Measured values reported in patent publication EP3839043A1, “SCREENING METHODS FOR COMPOUNDS MODULATING POLYAMINE TRANSPORT” (Katholieke Universiteit Leuven, priority 2019, dated 2021).
Marks after values point to notes of the source that are not given here.

Molecular target: T1, Microsomal ATP13A2 (Homo sapiens, UniProt Q9NQ11)
T1 construct: expressed in transfected cells; host or cells: SH-SY5Y human neuroblastoma cells, lentiviral transduction; microsomes solubilised with DDM
T1 sequence (Q9NQ11 1-1175 isoform Q9NQ11-3): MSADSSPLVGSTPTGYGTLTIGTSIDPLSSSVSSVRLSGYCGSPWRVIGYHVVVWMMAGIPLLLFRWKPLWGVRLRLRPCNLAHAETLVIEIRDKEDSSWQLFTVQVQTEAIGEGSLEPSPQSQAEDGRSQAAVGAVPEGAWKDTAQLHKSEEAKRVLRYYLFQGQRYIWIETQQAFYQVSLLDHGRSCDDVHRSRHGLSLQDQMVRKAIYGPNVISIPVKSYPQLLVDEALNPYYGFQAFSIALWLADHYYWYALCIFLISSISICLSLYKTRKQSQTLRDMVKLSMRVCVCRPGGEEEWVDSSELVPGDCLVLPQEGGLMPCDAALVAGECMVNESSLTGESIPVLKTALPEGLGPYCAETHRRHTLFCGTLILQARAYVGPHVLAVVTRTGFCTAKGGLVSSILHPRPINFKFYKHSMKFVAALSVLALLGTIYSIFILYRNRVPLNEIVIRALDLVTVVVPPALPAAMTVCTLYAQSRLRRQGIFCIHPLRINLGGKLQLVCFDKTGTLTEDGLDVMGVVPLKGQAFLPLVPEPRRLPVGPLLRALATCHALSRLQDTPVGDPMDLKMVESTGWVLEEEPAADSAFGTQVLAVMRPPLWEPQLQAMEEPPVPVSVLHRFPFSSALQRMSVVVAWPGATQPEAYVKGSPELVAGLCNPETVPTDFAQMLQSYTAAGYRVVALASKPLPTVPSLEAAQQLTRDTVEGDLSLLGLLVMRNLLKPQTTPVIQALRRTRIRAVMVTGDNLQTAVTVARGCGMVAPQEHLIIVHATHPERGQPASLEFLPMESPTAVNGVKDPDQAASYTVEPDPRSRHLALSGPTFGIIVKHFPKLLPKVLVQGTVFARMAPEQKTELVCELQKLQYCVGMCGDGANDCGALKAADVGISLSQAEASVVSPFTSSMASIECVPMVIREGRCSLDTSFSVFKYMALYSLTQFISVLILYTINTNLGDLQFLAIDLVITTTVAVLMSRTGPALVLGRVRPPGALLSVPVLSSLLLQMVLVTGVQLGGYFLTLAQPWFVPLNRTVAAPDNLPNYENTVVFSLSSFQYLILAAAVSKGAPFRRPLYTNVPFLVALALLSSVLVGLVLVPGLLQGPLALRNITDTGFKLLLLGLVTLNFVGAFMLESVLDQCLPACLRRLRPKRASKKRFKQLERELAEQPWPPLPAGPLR
Experiment: ATPase assay (ADP-Glo Max), solubilized microsomes of SH-SY5Y cells overexpressing ATP13A2 WT
Type: biochemical
Details: for ATPase activity of ATP13A2 WT, screen for candidate substrates: 100 nM CaCl2, MnCl2, ZnCl2 or FeCl3, 100 µM SPD or SPM; for Vmax ± SEM: Microsomal ATP13A2; for ATPase activity of ATP13A2, dose-response: indicated doses, microsomes 5 µg
Procedure: Membrane fractionation - Transduced SH-SY5Y cells were seeded in […] at a density of 6 x 10^6 cells per plate. 24 h later, the cells were harvested following trypsinization and brief centrifugation (300 x g, 5 min). Subcellular fractionation was performed by differential centrifugation. The microsomal protein concentration was measured using the bicinchoninic acid assay (Thermo Fischer Scientific, Pierce) according to the manufacturer's instructions.
ATPase assay - The ATPase activity of ATP13A2 was assessed using a commercially available luminescence assay (ADP-Glo Max assay, Promega) that monitors the production of ADP via luciferase activity. The reactions were performed for 30 min (37°C) in a final volume of 25 µl. […] The assay was started by the addition of 5 mM ATP and was terminated by adding 25 µl of ADP-Glo Reagent. The 96-well plate was then incubated for 40 min at room temperature, followed by the addition of 50 µl of ADP-Glo Max Detection Reagent. After 40 min, luminescence was detected using a FlexStation 3.0 system (Molecular Devices). Dose-response curves and n/Km/Vmax values were calculated using GraphPad Prism Software (GraphPad Software Inc.).

Structure (SMILES)	ATPase activity of ATP13A2 WT, screen for candidate substrates	Vmax ± SEM	ATPase activity of ATP13A2, dose-response	Hill coefficient of SPM-induced ATPase activity (microsomal ATP13A2 WT)
NCCCCNCCCN [Spermidine, spermidine]	significantly stimulated ATPase activity	∼ 106* nmol ADP/mg/min	stimulate ATPase activity in a concentration-dependent manner	
NCCCNCCCCNCCCN [Spermine, spermine]	significantly stimulated ATPase activity	140 ± 6 nmol ADP/mg/min	stimulate ATPase activity in a concentration-dependent manner	approaches one
